# Test results from patent publication US5272078A, “CDNA encoding the type I iodothyronine 5'deiodinase” (Brigham and Women's Hospital, priority 1992, dated 1993).
# Positions count from the first letter of the chain named. pKi: −log10 of the molar value. Where “and” joins values, the source holds several entries; their conditions need not be identical. Equal entries are not always repeated. Where two headings read alike, the source gives them in different places.
# Key:
# rat 5' deiodinase = molecular target: T1, rat 5' deiodinase (Rattus norvegicus, UniProt P24389); experiment: Affinity labelling with bromoacetyl T3, rat enzyme; assay type: binding
# T1 construct: the full length protein terminates at the UAG codon at nucleotide 778; expressed in transfected cells, vector CDM-8; cell sonicate
# T1 sequence (P24389 1-257): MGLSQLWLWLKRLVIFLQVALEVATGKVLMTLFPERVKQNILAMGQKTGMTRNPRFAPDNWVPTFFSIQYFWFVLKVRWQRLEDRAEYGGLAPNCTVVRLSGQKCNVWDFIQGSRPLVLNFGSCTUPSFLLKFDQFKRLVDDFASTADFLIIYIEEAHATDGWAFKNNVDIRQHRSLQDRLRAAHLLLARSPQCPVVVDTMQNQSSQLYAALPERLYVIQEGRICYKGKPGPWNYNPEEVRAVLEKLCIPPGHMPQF
# Experimental: (§1) The final product in 2 ml of acidified 20% ethanol was diluted with 3 volumes of water and purified by chromatography on a column (2.5×0.8cm) of Sephadex LH-20 (Pharmacia). […] Densitometric quantitation of the autoradiographs was performed by a Molecular Dynamics computing densitometer (Sunnyvale, Calif.).
# [1] = molecular target: T2, Human Type I 5'-Deiodinase (Homo sapiens, UniProt P49895); experiment: Kinetics of rT3 deiodination, enzyme transiently expressed in COS-7 cells; assay type: biochemical
# T2 construct: expressed in transfected cells; host or cells: COS-7 cells (cell sonicate)
# T2 sequence (P49895 1-249): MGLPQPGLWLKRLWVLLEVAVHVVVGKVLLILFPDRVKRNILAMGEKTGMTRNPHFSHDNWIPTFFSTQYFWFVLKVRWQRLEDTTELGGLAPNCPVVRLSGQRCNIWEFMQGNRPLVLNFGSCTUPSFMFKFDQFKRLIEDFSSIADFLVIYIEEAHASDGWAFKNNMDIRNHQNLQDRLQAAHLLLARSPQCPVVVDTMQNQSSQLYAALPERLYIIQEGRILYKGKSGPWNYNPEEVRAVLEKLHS
# Experimental: Cell sonicate protein concentration was approximately 12 mg ml^-1 by Biorad determination using gamma globulin as a standard.
# Incubations were for 30 minutes at 37° C. and ^125 I was quantitated as previously described (Berry, et al., Mol. Endocrinol. 4:743-748 (1990)).
# human 5' deiodinase [2] = molecular target: T3, human 5' deiodinase (Homo sapiens, UniProt P49895); experiment: Affinity labelling with bromoacetyl T3, human enzyme; assay type: binding; design: expressed in transfected cells; host or cells: COS-7 cells (cell sonicate)
# T3 sequence (P49895 1-249): T2 sequence (P49895 1-249)
# Experimental: as §1
# Type I 5' deiodinase = molecular target: T4, Type I 5' deiodinase (Rattus norvegicus, UniProt P24389); experiment: rT3 deiodination by clone G21 enzyme expressed in transfected JEG-3 cells; assay type: biochemical; conditions: for mode of inhibition: rT3 as substrate
# T4 construct: the full length protein terminates at the UAG codon at nucleotide 778; expressed in transfected cells; host or cells: JEG-3 human choriocarcinoma cells, vector CDM-8 (homogenates, microsomal fractions or sonicates)
# T4 sequence (P24389 1-257): T1 sequence (P24389 1-257)
# Source text: To verify that this clone encoded the Type I 5' deiodinase, it was expressed in JEG-3 human choriocarcinoma cells following DNA transfection.
# To confirm that this clone encoded Type I 5' deiodinase, it was expressed in JEG-3 human choriocarcinoma cells following DNA transfection.
# [3] = molecular target: T5, Type I iodothyronine 5' deiodinase, TGA (selenocysteine-126) (Rattus norvegicus, UniProt P24389); experiment: Sensitivity to gold thioglucose, wild type (TGA) G21 cDNA, JEG cell sonicates; assay type: biochemical; conditions: for Deiodinase Activity of JEG cell sonicates: 10 mM DTT, 300 nM 125I rT3, 30 min
# T5 construct: the full length protein terminates at the UAG codon at nucleotide 778; expressed in transfected cells; host or cells: JEG-3 human choriocarcinoma cells, vector CDM-8 (homogenates, microsomal fractions or sonicates)
# T5 sequence (P24389 1-257): T1 sequence (P24389 1-257)
# Source text: (§2) Wild type (TGA) or cysteine mutant (TGT) G21 cDNA in CDM-8 was transfected into JEG-3 as described in Example III. […] 1β-D-Thioglucose (5 μm) had no effect on enzyme activity. 1.
# [4] = molecular target: T6, Type I iodothyronine 5' deiodinase, TGT (cysteine-126) mutant (Rattus norvegicus, UniProt P24389, U126C); experiment: Sensitivity to gold thioglucose, cysteine mutant (TGT) G21 cDNA, JEG cell sonicates; assay type: biochemical; conditions: for Deiodinase Activity of JEG cell sonicates: 10 mM DTT, 300 nM 125I rT3, 30 min
# T6 construct: expressed in transfected cells; host or cells: JEG-3 cells, vector CDM-8 (cell sonicate)
# T6 sequence (P24389 1-257 U126C): T1 sequence (P24389 1-257) with U126C
# Source text: as §2
# human 5' deiodinase [5] = molecular target: T3, human 5' deiodinase; conditions: with or without 0.5 mM PTU; 100 nM 125I-T4, 25 mM DTT, 16 hours
# Experimental: T4, T3 and I^- were separated by paper chromatography and identified by staining of chromatographed unlabelled standards. The ^125 I content of the products was quantitated by counting the paper strips in a gamma scintillation counter. All assays were performed in duplicate. Kinetic analyses were performed as previously described (Berry, et al., J. Biol. Chem. 266:14155-14158 (1991)) by drawing double reciprocal plots of deiodination rate vs. substrate concentration. […] Since the enzyme is not pure, all kinetic constants are apparent.
# [6] = molecular target: T7, Liver Microsomal Human Type I 5'-Deiodinase (Homo sapiens, UniProt P49895); conditions: cited from earlier work
# T7 construct: those of the human liver microsomal enzyme; from tissue; host or cells: human liver microsomes
# T7 sequence (P49895 1-249): T2 sequence (P49895 1-249)
# T4 to T3 conversion = conditions: cited from earlier work
# [7] = molecular target: T8, rat 5' deiodinase cysteine mutant (Rattus norvegicus, UniProt P24389, U126C); conditions: cited from earlier work
# T8 sequence (P24389 1-257 U126C): T1 sequence (P24389 1-257) with U126C
# Type I deiodinase = molecular target: T9, Type I deiodinase (Rattus norvegicus, UniProt P24389); conditions: cited from earlier work
# T9 sequence (P24389 1-257): T1 sequence (P24389 1-257)
# 5' deiodinase activity = molecular target: T10, 5' deiodinase activity (Rattus norvegicus, UniProt P24389); conditions: rats; cited from earlier work
# T10 construct: host or cells: rat, in vivo
# T10 sequence (P24389 1-257): T1 sequence (P24389 1-257)
# [8] = PTU 100 μM, read-out: decrease in BrAcT3 labelling
molecule,measurement,setting,value
"N[C@@H](Cc1cc(I)c(Oc2cc(I)c(O)c(I)c2)c(I)c1)C(=O)O [T4, thyroxine]",inhibition at 30 µM,"rat 5' deiodinase; T4 30 μM, read-out: reduction of BrAcT3 labelling",67%
same,pKi,[1],5.21
same,BrAcT3 labelling of the ~28 kDa protein,human 5' deiodinase [2]; T4 30 μM,does not inhibit
same,mode of inhibition,Type I 5' deiodinase,competitive inhibitor of rT3 deiodination
"O[C@H](CS)[C@H](O)CS (racemic) [DTT, dithiothreitol]",Kb,[1]; apparent,5000 µM
O=C(CBr)NC(Cc1cc(I)c(Oc2ccc(O)c(I)c2)c(I)c1)C(=O)O (centres unmarked) [BrAcT3],BrAcT3 labelling of the ~28 kDa protein,rat 5' deiodinase; excess cold BrAcT3 (364 nM),inhibited
same,BrAcT3 labelling of the ~28 kDa protein,human 5' deiodinase [2]; excess cold BrAcT3 (364 nM),inhibited
gold thioglucose [GTG],Inhibition,[3]; GTG 1 nM,0%
same,Deiodinase Activity of JEG cell sonicates,[3]; GTG 1 nM,7.0 pmol rT3 min^-1 mg protein^-1
same,Inhibition,[3]; GTG 10 nM,43%
same,Deiodinase Activity of JEG cell sonicates,[3]; GTG 10 nM,4.0 pmol rT3 min^-1 mg protein^-1
same,Inhibition,"[3]; GTG 10 nM, listed as gold thioglucose",~ 50%
same,Inhibition,[3]; GTG 100 nM,95%
same,Deiodinase Activity of JEG cell sonicates,[3]; GTG 100 nM,0.95 pmol rT3 min^-1 mg protein^-1
same,BrAcT3 labelling of the ~28 kDa protein,rat 5' deiodinase; 100 nM gold thioglucose,inhibited
same,sensitivity to inhibition compared with the native enzyme,[4],much less sensitive
same,Inhibition,[4]; GTG 10 nM,0%
same,Deiodinase Activity of JEG cell sonicates,[4]; GTG 10 nM,1.3 pmol rT3 min^-1 mg protein^-1
same,Inhibition,[4]; GTG 100 nM,13%
same,Deiodinase Activity of JEG cell sonicates,[4]; GTG 100 nM,1.1 pmol rT3 min^-1 mg protein^-1
same,pKi,"[1]; read-out: Ki (GTG · rT3), 10 mM DTT, competitive, apparent",8.33
same,BrAcT3 labelling of the ~28 kDa protein,human 5' deiodinase [2]; 100 nM gold thioglucose,inhibited
OC[C@H]1O[C@@H](S)[C@H](O)[C@@H](O)[C@@H]1O [1β-D-Thioglucose],effect on enzyme activity,[3]; 5 μm,no effect
"CCCc1cc(=O)[nH]c(=S)[nH]1 [PTU, propylthiouracil]",inhibition at 100 µM,rat 5' deiodinase; [8],35 to 40%
same,"T4 to T3 conversion, sensitivity to PTU",human 5' deiodinase [5],PTU-sensitive
same,pKi,[6]; read-out: Ki (PTU · DTT),7.00
same,pKi,"[6]; read-out: Ki (PTU · rT3), 5 mM DTT",6.55
same,pKi,"[1]; Ki (PTU · DTT), competitive with respect to DTT, apparent",7.85
same,pKi,"[1]; Ki (PTU · rT3), 10 mM DTT, uncompetitive inhibitor of rT3 deiodination, apparent",6.77
same,inhibition at 100 µM,human 5' deiodinase [2]; [8],35 to 40%
same,inhibition at 0.5 µM,Type I 5' deiodinase; 0.5 μM PTU,> 50%
same,mode of inhibition,Type I 5' deiodinase,competitive inhibitor of DTT
same,131I release from T4,"T4 to T3 conversion; 100 mg, euthyroid subjects",inhibition
same,T4 to T3 conversion,T4 to T3 conversion; hyperthyroid patients,dose-related inhibition
"N[C@@H](Cc1ccc(Oc2cc(I)c(O)c(I)c2)c(I)c1)C(=O)O [rT3, 3,3',5'-triiodothyronine]",BrAcT3 labelling of the ~28 kDa protein,rat 5' deiodinase; rT3 3 μM and 10 μM,inhibited
same,apparent Km of the cysteine mutant higher than wild type,[7],10 fold
same,Vmax/Km ratio for rT3 higher than for T4,Type I deiodinase,1000 fold
same,Vmax (rT3),[6]; 5 mM DTT,128 to 242 pmol/min/mg
same,Vmax (rT3),[1]; 10 mM DTT,63.2 ± 16.4 pmol/min/mg and 63.2 pmol/min/mg
same,BrAcT3 labelling of the ~28 kDa protein,human 5' deiodinase [2]; rT3 3 μM and 10 μM,inhibited
gold,5' deiodinase activity after administration,5' deiodinase activity,Inhibition
